Assay results as given in patent publication US10610520B2, “Heterocyclic compound” (Takeda Pharmaceutical Company Limited, priority 2016, dated 2020).

molecular target: T1, His-hMAGL (recombinant polyhistidine tagged human MAGL protein) (Homo sapiens, UniProt Q99685); test: Measurement of MAGL inhibitory activity (arachidonic acid production from 2-arachidonylglycerol, RapidFire-mass spectrometry); type: biochemical; settings: MAGL inhibitory rate, test compound 10 μM, 60 min preincubation, 2-arachidonylglycerol substrate
T1 construct: made in house; host or cells: E. coli BL21(DE3)
T1 sequence (Q99685 1-303): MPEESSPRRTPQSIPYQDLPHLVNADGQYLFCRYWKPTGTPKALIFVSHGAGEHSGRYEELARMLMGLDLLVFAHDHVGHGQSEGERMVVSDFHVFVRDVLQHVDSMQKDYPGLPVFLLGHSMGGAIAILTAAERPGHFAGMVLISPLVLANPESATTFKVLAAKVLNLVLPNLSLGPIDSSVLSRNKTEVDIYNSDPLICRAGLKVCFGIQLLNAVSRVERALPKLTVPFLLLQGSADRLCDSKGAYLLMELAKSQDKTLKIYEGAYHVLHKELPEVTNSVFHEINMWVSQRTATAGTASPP
Procedure, shortened: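 Arachidonic acid formed was quantified by online solid-phase extraction and triple-quadrupole MS in negative SRM mode against a d8 internal standard. Reaction: recombinant His-hMAGL (7.5 ng/mL, pH 7.5 Tris buffer with Triton X-100 and BSA) plus 2-AG (5 μL of 150 μM stock) for 10 min at room temperature, quenched with 2% formic acid. Percent inhibition corrected for enzyme-free background.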

Structure (SMILES)	inhibition at 10 µM [%]
O=C1CCC2(CN(C(=O)c3ccc(-c4ccc5c(c4)CCO5)cc3)C2)N1 [Example 95, 2-(4-(2,3-dihydro-1-benzofuran-5-yl)benzoyl)-2,5-diazaspiro[3.4]octan-6-one]	94
O=C1CCC2(CN(C(=O)N3CCC(F)(Cc4ccc(F)cc4)CC3)C2)N1 [Example 97, 2-((4-fluoro-4-(4-fluorobenzyl)piperidin-1-yl)carbonyl)-2,5-diazaspiro[3.4]octan-6-one]	96
O=C1CCC2(CN(C(=O)N3CCC(Cc4cccc(Cl)c4)CC3)C2)N1 [Example 100, 2-((4-(3-chlorobenzy)lpiperidin-1-yl)carbonyl)-2,5-diazaspiro[3.4]octan-6-one]	102
O=C1CCC2(CN(C(=O)N3CCC(Cc4ccccc4Cl)CC3)C2)N1 [Example 101, 2-((4-(2-chlorobenzyl)piperidin-1-yl)carbonyl)-2,5-diazaspiro[3.4]octan-6-one]	99
O=C1CCC2(CN(C(=O)N3CCC(Cc4ccc(Cl)cc4Cl)CC3)C2)N1 [Example 102, 2-((4-(2,4-dichlorobenzyl)piperidin-1-yl)carbonyl)-2,5-diazaspiro[3.4]octan-6-one]	102
O=C1CCC2(CN(C(=O)N3CCC(Cc4ccc(Cl)c(Cl)c4)CC3)C2)N1 [Example 103, 2-((4-(3,4-dichlorobenzyl)piperidin-1-yl)carbonyl)-2,5-diazaspiro[3.4]octan-6-one]	103
O=C1CCC2(CN(C(=O)N3CCC(Cc4ccc(Cl)cc4C(F)(F)F)CC3)C2)N1 [Example 105, 2-((4-(4-chloro-2-(trifluoromethyl)benzyl)piperidin-1-yl)carbonyl)-2,5-diazaspiro[3.4]octan-6-one]	102
O=C1CCC2(CN(C(=O)N3CCC(Cc4ccc(C(F)(F)F)cc4Cl)CC3)C2)N1 [Example 107, 2-((4-(2-chloro-4-(trifluoromethyl)benzyl)piperidin-1-yl)carbonyl)-2,5-diazaspiro[3.4]octan-6-one]	98
COC(=O)c1cccc(-c2ccc(CC3CCN(C(=O)N4CC5(CCC(=O)N5)C4)CC3)cc2)c1 [Example 110, methyl 4′-((1-((6-oxo-2,5-diazaspiro[3.4]oct-2-yl)carbonyl)piperidin-4-yl)methyl)biphenyl-3-carboxylate]	101
O=C1CCC2(CN(C(=O)N3CCC(C(c4ccccc4)c4ccccc4)CC3)C2)N1 [Example 112, 2-((4-(diphenylmethyl)piperidin-1-yl)carbonyl)-2,5-diazaspiro[3.4]octan-6-one]	101
O=C1CCC2(CN(C(=O)N3CCN(C(c4ccc(F)cc4)c4ccc(F)cc4)CC3)C2)N1 [Example 113, 2-((4-(bis(4-fluorophenyl)methyl)piperazin-1-yl)carbonyl)-2,5-diazaspiro[3.4]octan-6-one]	101
O=C1CCC2(CN(C(=O)c3ccc(-c4ccccc4)c(Cl)c3)C2)N1 [Example 119, 2-((2-chlorobiphenyl-4-yl)carbonyl)-2,5-diazaspiro[3.4]octan-6-one]	90
O=C1CCC2(CN(C(=O)c3ccc(-c4ccccc4)s3)C2)N1 [Example 126, 2-((5-phenyl-2-thienyl)carbonyl)-2,5-diazaspiro[3.4]octan-6-one]	85
Cc1cc(-c2ccccc2)sc1C(=O)N1CC2(CCC(=O)N2)C1 [Example 129, 2-((3-methyl-5-phenyl-2-thienyl)carbonyl)-2,5-diazaspiro[3.4]octan-6-one]	89
O=C1CCC2(CN(C(=O)c3ccc(-c4cccc(C(F)(F)F)c4)c(C(F)(F)F)c3)C2)N1 [Example 131, 2-((2,3′-bis(trifluoromethyl)biphenyl-4-yl)carbonyl)-2,5-diazaspiro[3.4]octan-6-one]	99
O=C1CCC2(CN(C(=O)c3ccc(-c4cccc(C(F)(F)F)c4)c(OC(F)(F)F)c3)C2)N1 [Example 132, 2-((2-(trifluoromethoxy)-3′-(trifluoromethyl)biphenyl-4-yl)carbonyl)-2,5-diazaspiro[3.4]octan-6-one]	99
Cc1c(C(=O)N2CC3(CCC(=O)N3)C2)sc2cccc(F)c12 [Example 142, 2-((4-fluoro-3-methyl-1-benzothiophen-2-yl)carbonyl)-2,5-diazaspiro[3.4]octan-6-one]	96
O=C1CCC2(CN(C(=O)c3cc4cccc(Br)c4s3)C2)N1 [Example 146, 2-((7-bromo-1-benzothiophen-2-yl)carbonyl)-2,5-diazaspiro[3.4]octan-6-one]	90

Second part, the compound after the results:

inhibition at 10 µM [%]	Structure (SMILES)
93	O=C1CCC2(CN(C(=O)c3ccc(-c4cccc5c4OCC5)cc3)C2)N1 [Example 94, 2-(4-(2,3-dihydro-1-benzofuran-7-yl)benzoyl)-2,5-diazaspiro[3.4]octan-6-one]
101	O=C1CCC2(CN(C(=O)N3CCC(Cc4ccccc4F)CC3)C2)N1 [Example 96, 2-((4-(2-fluorobenzyl)piperidin-1-yl)carbonyl)-2,5-diazaspiro[3.4]octan-6-one]
101	O=C1CCC2(CN(C(=O)N3CCC(Cc4ccc(F)cc4F)CC3)C2)N1 [Example 98, 2-((4-(2,4-difluorobenzyl)piperidin-1-yl)carbonyl)-2,5-diazaspiro[3.4]octan-6-one]
100	O=C1CCC2(CN(C(=O)N3CCC(Cc4ccc(Cl)cc4)CC3)C2)N1 [Example 99, 2-((4-(4-chlorobenzyl)piperidin-1-yl)carbonyl)-2,5-diazaspiro[3.4]octan-6-one]
98	Cc1cc(Cl)ccc1CC1CCN(C(=O)N2CC3(CCC(=O)N3)C2)CC1 [Example 104, 2-((4-(4-chloro-2-methylbenzyl)piperidin-1-yl)carbonyl)-2,5-diazaspiro[3.4]octan-6-one]
101	O=C1CCC2(CN(C(=O)N3CCC(Cc4ccc(C(F)(F)F)cc4)CC3)C2)N1 [Example 106, 2-((4-(4-(trifluoromethyl)benzyl)piperidin-1-yl)carbonyl)-2,5-diazaspiro[3.4]octan-6-one]
104	O=C1CCC2(CN(C(=O)N3CCC(Cc4cc(C(F)(F)F)cc(C(F)(F)F)c4)CC3)C2)N1 [Example 108, 2-((4-(3,5-bis(trifluoromethyl)benzyl)piperidin-1-yl)carbonyl)-2,5-diazaspiro[3.4]octan-6-one]
98	COC(=O)c1ccc(-c2ccc(CC3CCN(C(=O)N4CC5(CCC(=O)N5)C4)CC3)cc2)cc1 [Example 109, methyl 4′-((1-((6-oxo-2,5-diazaspiro[3.4]oct-2-yl)carbonyl)piperidin-4-yl)methyl)biphenyl-4-carboxylate]
101	O=C1CCC2(CN(C(=O)N3CCC(Cc4ccc(N5CCCCC5)cc4)CC3)C2)N1 [Example 111, 2-((4-(4-(piperidin-1-yl)benzyl)piperidin-1-yl)carbonyl)-2,5-diazaspiro[3.4]octan-6-one]
81	O=C1CCC2(CN(C(=O)c3ccc(-c4ccccc4)cc3Cl)C2)N1 [Example 117, 2-((3-chlorobiphenyl-4-yl)carbonyl)-2,5-diazaspiro[3.4]octan-6-one]
87	Cc1cc(C(=O)N2CC3(CCC(=O)N3)C2)ccc1-c1ccccc1 [Example 118, 2-((2-methylbiphenyl-4-yl)carbonyl)-2,5-diazaspiro[3.4]octan-6-one]
98	O=C1CCC2(CN(C(=O)c3sc4ccccc4c3Cl)C2)N1 [Example 134, 2-((3-chloro-1-benzothiophen-2-yl)carbonyl)-2,5-diazaspiro[3.4]octan-6-one]
99	COc1ccc2c(Cl)c(C(=O)N3CC4(CCC(=O)N4)C3)sc2c1 [Example 139, 2-((3-chloro-6-methoxy-1-benzothiophen-2-yl)carbonyl)-2,5-diazaspiro[3.4]octan-6-one]
99	O=C1CCC2(CN(C(=O)c3sc4cc(F)ccc4c3Cl)C2)N1 [Example 140, 2-((3-chloro-6-fluoro-1-benzothiophen-2-yl)carbonyl)-2,5-diazaspiro[3.4]octan-6-one]
92	Cc1c(C(=O)N2CC3(CCC(=O)N3)C2)sc2ccccc12 [Example 141, 2-((3-methyl-1-benzothiophen-2-yl)carbonyl)-2,5-diazaspiro[3.4]octan-6-one]
100	O=C1CCC2(CN(C(=O)c3sc4ccc(Cl)cc4c3-c3ccccc3)C2)N1 [Example 143, 2-((5-chloro-3-phenyl-1-benzothiophen-2-yl)carbonyl)-2,5-diazaspiro[3.4]octan-6-one]
87	O=C1CCC2(CN(C(=O)c3cc4ccc(OCc5ccc(Cl)cc5Cl)cc4s3)C2)N1 [Example 145, 2-((6-((2,4-dichlorobenzyl)oxy)-1-benzothiophen-2-yl)carbonyl)-2,5-diazaspiro[3.4]octan-6-one]
83	O=C1CCC2(CN(C(=O)c3cc4ccc(Cl)cc4s3)C2)N1 [Example 147, 2-((6-chloro-1-benzothiophen-2-yl)carbonyl)-2,5-diazaspiro[3.4]octan-6-one]
83	O=C1CCC2(CN(C(=O)c3cc4cc(OCc5ccc(Cl)cc5Cl)ccc4s3)C2)N1 [Example 149, 2-((5-((2,4-dichlorobenzyl)oxy)-1-benzothiophen-2-yl)carbonyl)-2,5-diazaspiro[3.4]octan-6-one]
